Test results reported in patent publication EP2241565A1, “Aurora kinase inhibitors compounds” (Universität Leipzig, priority 2009, dated 2010).
pIC50: −log10 of the molar value.

What was measured:
Experiment in all cases: RTK-Assay (ELISA, chemiluminescence)
Assay type in all cases: biochemical
[1] = molecular target: T1, EGFR (Homo sapiens, UniProt P00533)
T1 construct: GST (N); purchased Biomol
Description: (§1) To determine the IC50 of receptor-tyrosine-kinase an assay based on the ELISA-principle using kinases from Biomol (N-terminally fused to GST), POD-coupled antibody from Calbiochem (PY20) and BM chemiluminescence ELISA substrate from Roche was followed.
(§2) In short, a white 96 wells microplate was incubated overnight with 100 µl/well of the substrate solution (poly-Glu-Tyr diluted with PBS to 100 µg/ml) at 4 °C. The solution was removed and the plate was washed twice for 2 min with PBS-T. Afterwards the kinase solution (50 µl/well)( KDR (VEGFR2), 5 ng; Flt4 (VEGFR3), 20 ng; EGFR, 5 ng; IGFR, 15 ng; FGFR, 10 ng and Tie2, 20 ng) and the inhibitor solution (25 µl/well) were added to each well. To perform positive and negative control, 5% aqueous DMSO (25 µl/well) were used instead of inhibitor solution. Addition of ATP solution (25 µl/well) started the reaction, whereas 40 mM MnCl2 solution (25 µl/well) was added to the negative control instead of ATP. After incubation under mild shaking conditions for 30 min at rt the plate was washed with PBS-T (3 x 2 min) and subsequently incubated with antibody solution (anti-Phosphotyrosine-antibody (POD-coupled) diluted 1:10.000 in PBS-T + 0,2% (m/v) BSA)(100 µl/well) for 1 h again while shaking. In the end the plate was washed with PBS-T (3x5 min) and provided with the chemiluminescence substrate (50 µl/well). After 3 min the occurring luminescence was measured using a luminometer. A positive control was measured without inhibitor to determine the activity of the kinase, a negative control without inhibitor and ATP to abstract the background signal from the results. For determination of IC50 values, the relative luminescence units per second (RLU/s) were blotted against the inhibitor concentrations. In doing so each concentration measurement was done triplicate and at least 5 different inhibitor concentrations were used to determine IC50 value.
(§3) This assay is based on the ELISA-principle using kinases from Biomol (N-terminally fused to GST), POD-coupled antibody from Calbiochem (PY20) and BM chemiluminescence ELISA substrate from Roche.
(§4) Each well of a 96 well microplate (white, flat bottom, Greiner, Lumitrac600) was covered with a kinase polypeptide substrate containing glutamate and tyrosine. The substrate was incubated with a kinase, a defined inhibitor concentration and ATP. After kinase inhibitor depending phosphorylation of the substrate a POD-coupled antibody was added that selectively binds to phosphorylated tyrosine. Finally, a chemiluminescence reagent was added and light emission measured using an Orion Microplate Luminometer (Berthold).
(§5) The detected counts correlate directly with the amount of phosphorylated tyrosine and indirectly with the activity of the inhibitor.
(§6) A positive control was measured without inhibitor to determine the activity of the kinase, a negative control without inhibitor and ATP to abstract the background signal from the results. For determination of IC50 values, the relative luminescence units per second (RLU/s) were blotted against the inhibitor concentrations. In doing so each concentration measurement was done triplicate and at least 5 different inhibitor concentrations were used to determine IC50 value.
(§7) The following solutions were prepared for the receptor-tyrosine-kinase assay: - PBS (10x) 1 g KCl, 1 g KH2PO4, 40 g NaCl, 13.2 g Na2HPO4, ad 1 l H2O - PBST (1x) PBS 10x + 0,5% Tween20 → diluted 1:10 - substrate poly-Glu-Tyr 4:1 (10mg/ml in PBS) → diluted with PBS to 100µg/ml - kinase buffer 100mM HEPES, 100mM NaCl, 0.1mM Na3VO4 - kinase solution kinase buffer, kinase stock solution diluted to reach the following concentration defined in the table Table "kinase dilution" […]

[2] = molecular target: T2, Flt-4 (VEGFR3) (Homo sapiens, UniProt P35916); conditions: read-out: IC50 Flt-4 (VEGFR 3)
T2 construct: GST (N); purchased Biomol
Description: as §1, §2, §3, §4, §5, §6, §7

[3] = molecular target: T3, IGFR (Homo sapiens, UniProt P08069)
T3 construct: GST (N); purchased Biomol
Description: as §1, §2, §3, §4, §5, §6, §7

[4] = molecular target: T4, Tie2 (Homo sapiens, UniProt Q02763); conditions: read-out: IC50 Tie-2
T4 construct: GST (N); purchased Biomol
Description: as §1, §2, §3, §4, §5, §6, §7

[5] = system: FGFR
Description: as §1
as §2, with “A positive control was measured without inhibitor to determine the activity of the kinase, a negative control without inhibitor and ATP to abstract the background signal from the results.” left out
This assay is based on the ELISA-principle using kinases from Biomol (N-terminally fused to GST), POD-coupled antibody from Calbiochem (PY20) and BM chemiluminescence ELISA substrate from Roche. […]
For determination of IC50 values, the relative luminescence units per second (RLU/s) were blotted against the inhibitor concentrations. […]

T2 sequence (P35916 25-1363, species assumed): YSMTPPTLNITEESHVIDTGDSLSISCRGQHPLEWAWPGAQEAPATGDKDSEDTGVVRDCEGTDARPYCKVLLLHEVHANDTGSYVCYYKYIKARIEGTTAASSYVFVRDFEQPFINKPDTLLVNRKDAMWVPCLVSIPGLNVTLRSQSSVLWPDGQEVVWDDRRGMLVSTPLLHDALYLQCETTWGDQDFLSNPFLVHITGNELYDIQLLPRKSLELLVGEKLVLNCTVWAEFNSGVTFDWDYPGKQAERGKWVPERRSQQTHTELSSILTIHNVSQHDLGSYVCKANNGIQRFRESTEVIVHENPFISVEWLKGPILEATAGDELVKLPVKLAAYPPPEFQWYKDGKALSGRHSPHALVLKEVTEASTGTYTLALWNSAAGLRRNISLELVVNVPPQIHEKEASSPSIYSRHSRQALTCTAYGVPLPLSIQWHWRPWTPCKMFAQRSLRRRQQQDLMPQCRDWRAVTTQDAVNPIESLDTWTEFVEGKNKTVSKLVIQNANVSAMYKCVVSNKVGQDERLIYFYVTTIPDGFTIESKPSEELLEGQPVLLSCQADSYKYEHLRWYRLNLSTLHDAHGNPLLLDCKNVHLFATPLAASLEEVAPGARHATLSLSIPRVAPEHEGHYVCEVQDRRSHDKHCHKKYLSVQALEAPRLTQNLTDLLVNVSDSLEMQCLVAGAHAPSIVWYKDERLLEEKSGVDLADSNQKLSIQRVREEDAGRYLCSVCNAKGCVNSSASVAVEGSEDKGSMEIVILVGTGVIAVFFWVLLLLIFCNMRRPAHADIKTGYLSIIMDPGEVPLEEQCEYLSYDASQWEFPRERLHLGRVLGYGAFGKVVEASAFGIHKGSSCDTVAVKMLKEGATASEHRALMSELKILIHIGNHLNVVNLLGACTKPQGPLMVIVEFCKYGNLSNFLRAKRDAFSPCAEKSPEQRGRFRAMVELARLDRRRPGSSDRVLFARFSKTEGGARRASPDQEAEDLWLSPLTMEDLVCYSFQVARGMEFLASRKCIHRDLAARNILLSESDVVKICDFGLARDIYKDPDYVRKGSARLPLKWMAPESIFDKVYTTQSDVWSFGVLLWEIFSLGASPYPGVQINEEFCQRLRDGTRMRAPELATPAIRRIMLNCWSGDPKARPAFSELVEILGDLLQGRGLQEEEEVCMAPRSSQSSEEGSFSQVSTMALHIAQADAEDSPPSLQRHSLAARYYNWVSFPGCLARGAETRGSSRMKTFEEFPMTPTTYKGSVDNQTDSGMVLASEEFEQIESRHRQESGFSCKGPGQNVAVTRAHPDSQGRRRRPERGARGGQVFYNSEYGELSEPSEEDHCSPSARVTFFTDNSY
T4 sequence (Q02763 23-1124, species assumed): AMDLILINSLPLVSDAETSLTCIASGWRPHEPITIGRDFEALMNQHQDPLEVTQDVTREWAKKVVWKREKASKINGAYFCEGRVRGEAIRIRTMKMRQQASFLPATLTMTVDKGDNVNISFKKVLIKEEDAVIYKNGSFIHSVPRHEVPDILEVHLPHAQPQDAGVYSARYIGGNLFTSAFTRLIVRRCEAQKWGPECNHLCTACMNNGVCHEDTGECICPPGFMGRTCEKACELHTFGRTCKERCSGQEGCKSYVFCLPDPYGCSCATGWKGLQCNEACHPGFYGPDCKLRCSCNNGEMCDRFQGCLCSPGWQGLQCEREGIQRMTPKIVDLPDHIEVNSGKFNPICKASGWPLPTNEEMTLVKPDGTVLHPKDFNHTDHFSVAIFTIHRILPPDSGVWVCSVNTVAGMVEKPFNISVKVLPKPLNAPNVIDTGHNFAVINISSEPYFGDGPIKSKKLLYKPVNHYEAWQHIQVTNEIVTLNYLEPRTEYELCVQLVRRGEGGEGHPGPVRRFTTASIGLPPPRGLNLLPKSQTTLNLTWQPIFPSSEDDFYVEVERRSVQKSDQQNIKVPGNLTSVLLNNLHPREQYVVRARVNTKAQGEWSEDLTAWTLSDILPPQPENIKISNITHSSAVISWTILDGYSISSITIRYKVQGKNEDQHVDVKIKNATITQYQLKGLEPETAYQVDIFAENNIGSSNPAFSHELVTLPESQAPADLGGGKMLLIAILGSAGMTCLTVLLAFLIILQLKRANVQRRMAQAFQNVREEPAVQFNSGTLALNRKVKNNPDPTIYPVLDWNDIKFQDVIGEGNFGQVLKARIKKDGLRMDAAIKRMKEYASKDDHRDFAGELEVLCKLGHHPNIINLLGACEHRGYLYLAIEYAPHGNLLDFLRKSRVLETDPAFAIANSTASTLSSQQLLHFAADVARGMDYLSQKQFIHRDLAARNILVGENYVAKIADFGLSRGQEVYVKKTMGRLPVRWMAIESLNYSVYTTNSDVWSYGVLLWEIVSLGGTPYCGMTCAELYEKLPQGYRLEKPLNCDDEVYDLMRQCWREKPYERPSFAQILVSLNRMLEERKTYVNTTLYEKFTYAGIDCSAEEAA
T1 sequence (P00533 25-1210, species assumed): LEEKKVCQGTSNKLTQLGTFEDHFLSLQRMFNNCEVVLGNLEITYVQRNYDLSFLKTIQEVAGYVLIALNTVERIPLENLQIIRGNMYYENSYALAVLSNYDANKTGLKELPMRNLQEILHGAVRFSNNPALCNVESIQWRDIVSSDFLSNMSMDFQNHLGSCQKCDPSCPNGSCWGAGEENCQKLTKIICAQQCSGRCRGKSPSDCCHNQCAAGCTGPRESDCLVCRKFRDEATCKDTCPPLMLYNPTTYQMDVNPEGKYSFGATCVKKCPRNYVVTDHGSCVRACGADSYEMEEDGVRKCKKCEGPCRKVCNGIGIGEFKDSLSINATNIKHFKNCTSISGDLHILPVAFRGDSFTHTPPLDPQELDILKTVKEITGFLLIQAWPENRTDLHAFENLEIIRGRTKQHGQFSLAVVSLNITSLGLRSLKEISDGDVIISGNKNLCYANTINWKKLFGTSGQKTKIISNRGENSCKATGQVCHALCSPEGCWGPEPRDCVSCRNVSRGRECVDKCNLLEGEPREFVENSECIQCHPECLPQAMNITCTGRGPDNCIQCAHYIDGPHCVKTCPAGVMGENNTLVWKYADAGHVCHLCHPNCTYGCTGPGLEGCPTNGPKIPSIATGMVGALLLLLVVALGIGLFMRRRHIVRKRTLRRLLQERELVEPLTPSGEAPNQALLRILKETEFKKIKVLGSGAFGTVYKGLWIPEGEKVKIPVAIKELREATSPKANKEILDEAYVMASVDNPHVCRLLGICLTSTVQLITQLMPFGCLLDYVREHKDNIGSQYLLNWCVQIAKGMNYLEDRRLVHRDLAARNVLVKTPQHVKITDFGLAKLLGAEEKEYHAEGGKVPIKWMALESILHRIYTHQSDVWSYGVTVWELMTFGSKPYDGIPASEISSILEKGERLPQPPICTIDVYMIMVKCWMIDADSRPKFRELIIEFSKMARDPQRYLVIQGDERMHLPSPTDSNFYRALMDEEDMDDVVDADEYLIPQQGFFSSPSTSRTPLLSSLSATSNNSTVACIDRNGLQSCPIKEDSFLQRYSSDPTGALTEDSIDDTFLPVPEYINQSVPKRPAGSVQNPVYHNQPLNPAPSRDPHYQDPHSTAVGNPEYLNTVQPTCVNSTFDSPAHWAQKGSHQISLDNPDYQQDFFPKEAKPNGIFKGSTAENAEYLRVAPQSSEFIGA
T3 sequence (P08069 31-1367): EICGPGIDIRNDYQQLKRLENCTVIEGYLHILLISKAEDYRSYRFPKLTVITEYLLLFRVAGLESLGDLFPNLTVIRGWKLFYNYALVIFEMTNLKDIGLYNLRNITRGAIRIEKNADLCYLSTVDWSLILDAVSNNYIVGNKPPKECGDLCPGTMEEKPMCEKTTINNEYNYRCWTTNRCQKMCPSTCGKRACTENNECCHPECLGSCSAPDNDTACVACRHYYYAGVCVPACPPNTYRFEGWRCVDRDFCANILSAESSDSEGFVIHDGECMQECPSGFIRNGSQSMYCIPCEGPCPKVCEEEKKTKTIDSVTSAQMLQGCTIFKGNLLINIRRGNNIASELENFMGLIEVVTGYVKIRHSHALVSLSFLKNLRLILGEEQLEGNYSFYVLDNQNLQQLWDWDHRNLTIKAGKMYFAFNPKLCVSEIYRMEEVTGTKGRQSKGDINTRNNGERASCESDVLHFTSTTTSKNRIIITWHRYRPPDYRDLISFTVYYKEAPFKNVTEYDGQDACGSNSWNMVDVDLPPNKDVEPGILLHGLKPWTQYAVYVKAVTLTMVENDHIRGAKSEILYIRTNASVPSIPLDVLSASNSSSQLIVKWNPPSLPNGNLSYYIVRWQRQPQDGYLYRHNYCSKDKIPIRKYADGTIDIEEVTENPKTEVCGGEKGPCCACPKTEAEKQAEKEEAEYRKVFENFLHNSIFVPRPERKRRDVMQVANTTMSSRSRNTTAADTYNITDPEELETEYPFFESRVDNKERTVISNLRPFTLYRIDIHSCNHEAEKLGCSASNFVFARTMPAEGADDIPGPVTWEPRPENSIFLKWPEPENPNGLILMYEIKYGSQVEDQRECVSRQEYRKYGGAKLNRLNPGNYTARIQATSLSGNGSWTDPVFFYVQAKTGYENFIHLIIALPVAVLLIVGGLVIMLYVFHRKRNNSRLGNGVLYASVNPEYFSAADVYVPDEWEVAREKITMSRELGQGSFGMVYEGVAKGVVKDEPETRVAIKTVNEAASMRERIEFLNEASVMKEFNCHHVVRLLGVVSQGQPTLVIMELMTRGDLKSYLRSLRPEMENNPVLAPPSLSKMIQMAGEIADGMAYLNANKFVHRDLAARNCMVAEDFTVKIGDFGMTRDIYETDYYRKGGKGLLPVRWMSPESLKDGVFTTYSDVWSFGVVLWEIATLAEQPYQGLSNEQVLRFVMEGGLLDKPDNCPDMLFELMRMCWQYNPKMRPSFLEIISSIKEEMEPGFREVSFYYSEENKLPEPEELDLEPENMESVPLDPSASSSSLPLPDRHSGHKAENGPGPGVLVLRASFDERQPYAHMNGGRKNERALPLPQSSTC

SMILES	pIC50 [1]	pIC50 [2]	pIC50 [3]	pIC50 [4]	pIC50 [5]
CC(C)Nc1nc(-c2ccco2)nc2ccc(/C=C/C(C)(C)O)cc12 [Compound (A), (E)-4-(2-(Furan-2-yl)-4-(isopropylamino)quinazolin-6-yl)-2-methylbut-3-en-2-ol]	< 4.00	5.37	4.38	< 4.00	< 4.00
CC(C)Nc1nc(-c2ccco2)nc2ccc(C#CCO)cc12 [Compound (C), 3-(2-(Furan-2-yl)-4-(isoiproipylamino)quinazolin-6-yl)prop-2-yn-l-ol]	< 4.00	< 4.00	< 4.00	< 4.00	< 4.00
